From PMC10303384, “The Effect of Terbinafine and Its Ionic Salts on Certain Fungal Plant Pathogens” (Molecules, 2023)
In brackets after ≈: the same amount, converted by molar mass. Several values for one entry are separate records, joined by “and”; a condition that tells them apart may be missing. Equal values may be shown once. Read-outs that look alike come from different tables or passages of the source.

What was measured:
[1] = tested on: Pyricularia oryzae (P. oryzae); assay: microbe, parasite or virus in culture; format: cell-based
[2] = tested on: B. cinerea on cherry tomatoes; assay: In vivo antifungal bioassay on cherry tomatoes; design: species or system Botrytis cinerea; conditions: 20 mg/L; for Diameter of infection (cm) 4 days: 4 days after treatment; for Diameter of infection (cm) 7 days: 7 days after treatment
[3] = tested on: Valsa malicola (V. mali); assay: In vitro fungicidal activity, mycelial (hyphae) growth inhibition on PDA; format: cell-based
[4] = tested on: Alternaria solani (A. solani); assay: as above; format: cell-based
[5] = tested on: Botrytis cinerea (B. cinerea); assay: as above; format: cell-based
[6] = tested on: Fusarium graminearum (F. graminearum); assay: microbe, parasite or virus in culture; format: cell-based
[7] = Solubility classification in representative solvents (Vogel protocol); format: physicochemical; conditions: 25 °C; for solubility: thermodynamic from solid
Description: This investigation details how to determine the solubility of terbinafine and its salts, guided by the experimental protocol in Vogel’s Textbook of Practical Organic Chemistry. Based on the Snyder polarity index values of the representative solvents, each solvent was tested for its ability to dissolve the target analytes. The solubility data was classified into three categories based on the observed extent of dissolution. […] The experimental procedures were performed at 25 °C and under ambient pressure.

[8] = tested on: Rhizoctonia solani (R. solani); assay: microbe, parasite or virus in culture; format: cell-based
[9] = tested on: Pythium aphanidermatum (P. aphanidermatum); assay: In vitro fungicidal activity, mycelial (hyphae) growth inhibition on PDA; format: cell-based; conditions: mean ± SD of three replicates
[10] = Solubility of saturated solutions by HPLC at 25 °C; format: physicochemical
Text: The filtrate was then passed through a 0.22 μm nylon membrane filter and subjected to HPLC analysis. Based on Wang’s report about the chromatographic parameters, modifications to the mobile phase ratio were made. The replicability of the results was ensured by performing each measurement in triplicate.

[11] = tested on: Phomopsis capsici (P. capsica); assay: In vitro fungicidal activity, mycelial (hyphae) growth inhibition on PDA; format: cell-based; conditions: mean ± SD of three replicates
[12] = Surface tension of saturated aqueous solutions, Du Noüy ring method; conditions: 25 °C
Description: This method involved adjusting the stage positioning of the solvent container such that a platinum ring could be immersed below the liquid interface or pulled through the meniscus. […] The maximum force was recorded as the surface tension of the solvent. To ensure accuracy, the platinum ring was thoroughly cleaned between each measurement through rinsing with double-distilled water and wiping it dry. The surface tension determination was performed in quadruplicate.

[13] = Critical micelle concentration by electrical conductivity; conditions: 25 °C
Description: The critical micelle concentrations (CMCs) of the TISs were measured using electrical conductivity at 25 °C, as shown in Figure S16.
The critical micelle concentrations (CMCs) of all the TISs were determined using an electrical conductivity meter (Leica Desktop Conductivity Meter DDSJ-308F, Shanghai Oustor Industrial Co., Ltd. Shanghai, China).

[14] = 50 mg/L, mean ± SD of three replicates
[15] = V. mali, read-out: EC50 (μmol/L)
[16] = test amount 0.1 g, Snyder polarity index 4.3

Q: For CN(C/C=C/C#CC(C)(C)C)Cc1cccc2ccccc12.O=C(O)c1ccco1 [TIS 5, (E)-N,6,6-trimethyl-N-(naphthalen-1-ylmethyl)hept-2-en-4-yn-1-aminium furan-2-carboxylate], which “Inhibition Rate at 50 mg/L (%) P. o” value [1, 14] is on record?
A: 96.68 ± 0.42%

Q: What about the “EC50 (mg/L)” value ([1]; P. oryzae) of the same compound?
A: 0.49 mg/L

Q: What about the EC50 ([1]; P. oryzae, read-out: EC50) of the same compound?
A: 1220 nM

Q: What about the “Diameter of infection (cm) 4 days” value [2] of the same compound?
A: 0.61 cm

Q: What about the “Diameter of infection (cm) 7 days” value [2] of the same compound?
A: 0.74 cm

Q: What about the “Inhibition Rate at 50 mg/L (%) V. m” value [3, 14] of the same compound?
A: 100 ± 0%

Q: What about the “EC50 (mg/L)” value ([3]; V. mali) of the same compound?
A: 1.49 mg/L

Q: And the “improvement of antifungal activity compared to terbinafine” value ([3]; V. mali, from EC50)?
A: 14%

Q: And the EC50 [3, 15]?
A: 3.69 µmol/L

Q: What about the “Inhibition Rate at 50 mg/L (%) A. s” value [4, 14] of the same compound?
A: 98.67 ± 0.61%

Q: What about the “EC50 (mg/L)” value ([4]; A. solani) of the same compound?
A: 0.08 mg/L

Q: What about the “improvement of antifungal activity compared to terbinafine” value ([4]; A. solani, from EC50) of the same compound?
A: 20%

Q: What about the EC50 ([4]; A. solani, read-out: EC50 (μmol/L)) of the same compound?
A: 0.2 µmol/L

Q: And the “Inhibition Rate at 50 mg/L (%) B. c” value [5, 14]?
A: 100 ± 0%

Q: And the “EC50 (mg/L)” value ([5]; B. cinerea)?
A: 0.13 mg/L

Q: What about the EC50 ([5]; B. cinerea, read-out: EC50 (μmol/L)) of the same compound?
A: 0.33 µmol/L

Q: What about the “Inhibition Rate at 50 mg/L (%) F. g” value [6, 14] of the same compound?
A: 100 ± 0%

Q: What about the “EC50 (mg/L)” value ([6]; F. graminearum) of the same compound?
A: 0.11 mg/L

Q: What about the EC50 ([6]; F. graminearum, read-out: EC50) of the same compound?
A: 270 nM

Q: What about the “Solubility in n-Hexane” value ([7]; test amount 0.1 g, Snyder polarity index 0.0) of the same compound?
A: − (“−” means insoluble in a 3 mL solvent, poor solubility)

Q: What about the “Solubility in Toluene” value ([7]; test amount 0.1 g, Snyder polarity index 2.3) of the same compound?
A: + (“+” means soluble in a 1 mL solvent, good solubility)

Q: What about the “Solubility in Chloroform” value ([7]; test amount 0.1 g, Snyder polarity index 4.1) of the same compound?
A: + (“+” means soluble in a 1 mL solvent, good solubility)

Q: What about the “Solubility in Ethyl acetate” value [7, 16] of the same compound?
A: + (“+” means soluble in a 1 mL solvent, good solubility)

Q: And the “Solubility in Isopropanol” value [7, 16]?
A: + (“+” means soluble in a 1 mL solvent, good solubility)

Q: And the “Solubility in Acetone” value ([7]; test amount 0.1 g, Snyder polarity index 5.1)?
A: + (“+” means soluble in a 1 mL solvent, good solubility)

Q: What about the “Solubility in Acetonitrile” value ([7]; test amount 0.1 g, Snyder polarity index 6.2) of the same compound?
A: + (“+” means soluble in a 1 mL solvent, good solubility)

Q: What about the “Solubility in DMSO” value ([7]; test amount 0.1 g, Snyder polarity index 6.5) of the same compound?
A: + (“+” means soluble in a 1 mL solvent, good solubility)

Q: And the “Solubility in Methanol” value ([7]; test amount 0.1 g, Snyder polarity index 6.6)?
A: + (“+” means soluble in a 1 mL solvent, good solubility)

Q: And the “Solubility in Water” value ([7]; test amount 0.1 g, Snyder polarity index 9.0)?
A: − (“−” means insoluble in a 3 mL solvent, poor solubility)

Q: What about the “EC50 (mg/L)” value [8] of the same compound?
A: 2.43 mg/L

Q: What about the “Inhibition Rate at 50 mg/L (%) R. s” value ([8]; 50 mg/L) of the same compound?
A: 82.02 ± 0.91%

Q: What about the EC50 ([8]; read-out: EC50) of the same compound?
A: 6020 nM

Q: And the “Inhibition Rate at 50 mg/L (%) P. a” value [9]?
A: 71.96 ± 2.68%

Q: What about the “Solubility, n-Hexane” value ([10]; Table S1) of the same compound?
A: 1.02 µM

Q: What about the water solubility ([10]; water) of the same compound?
A: 5880 µM

Q: And the “Inhibition Rate at 50 mg/L (%) P. c” value [11]?
A: 55.88 ± 1.89%

Q: What about the “surface tension of the saturated aqueous solution” value [12] of the same compound?
A: 51.26 mN·m^−1

Q: What about the “critical micelle concentration (CMC)” value [13] of the same compound?
A: 0.66 mmol/L

Q: With CN(C/C=C/C#CC(C)(C)C)Cc1cccc2ccccc12 [Terbinafine] as the compound, how does the EC50 ([1]; Pyricularia oryzae, P. oryzae) read?
A: 0.28 µg/mL and 950 nM

Q: And the inhibition at 50 µg/mL ([1]; Pyricularia oryzae, read-out: Inhibition Rate at 50 mg/L (%) P. o, 50 mg/L, mean ± SD of three replicates)?
A: 99.64 ± 0.36%

Q: What about the “Diameter of infection (cm) 4 days” value [2] of the same compound?
A: 0.89 cm

Q: And the “Diameter of infection (cm) 7 days” value [2]?
A: 1.07 cm

Q: And the inhibition at 50 µg/mL ([3]; Cytospora schulzeri, 50 mg/L, mean ± SD of three replicates, read-out: Inhibition Rate at 50 mg/L (%) V. m)?
A: 100%

Q: What about the EC50 ([3]; V. mali, read-out: EC50 (mg/L)) of the same compound?
A: 1.25 mg/L

Q: And the EC50 [3, 15]?
A: 4.28 µmol/L

Q: And the inhibition at 50 µg/mL ([4]; Alternaria solani, 50 mg/L, mean ± SD of three replicates, read-out: Inhibition Rate at 50 mg/L (%) A. s)?
A: 100%

Q: And the EC50 ([4]; Alternaria solani, A. solani, read-out: EC50 (mg/L))?
A: 0.07 mg/L

Q: What about the EC50 ([4]; Alternaria solani, A. solani, read-out: EC50 (μmol/L)) of the same compound?
A: 0.25 µmol/L

Q: And the inhibition at 50 µg/mL ([5]; Botrytis cinerea, 50 mg/L, mean ± SD of three replicates, read-out: Inhibition Rate at 50 mg/L (%) B. c)?
A: 100%

Q: And the EC50 ([5]; Botrytis cinerea, B. cinerea, read-out: EC50 (mg/L))?
A: 0.1 mg/L

Q: And the EC50 ([5]; Botrytis cinerea, B. cinerea, read-out: EC50 (μmol/L))?
A: 0.34 µmol/L

Q: What about the EC50 ([6]; Fusarium graminearum, F. graminearum) of the same compound?
A: 0.07 µg/mL and 250 nM

Q: What about the inhibition at 50 µg/mL ([6]; Fusarium graminearum, read-out: Inhibition Rate at 50 mg/L (%) F. g) of the same compound?
A: 100%

Q: What about the solubility ([7]; DMSO, organic solvent or mixture, test amount 0.1 g, Snyder polarity index 6.5, read-out: Solubility in DMSO) of the same compound?
A: > 100 mg/mL

Q: What about the solubility ([7]; acetone, organic solvent or mixture, test amount 0.1 g, Snyder polarity index 5.1, read-out: Solubility in Acetone) of the same compound?
A: > 100 mg/mL

Q: What about the solubility ([7]; acetonitrile, organic solvent or mixture, test amount 0.1 g, Snyder polarity index 6.2, read-out: Solubility in Acetonitrile) of the same compound?
A: > 100 mg/mL

Q: And the solubility ([7]; chloroform, organic solvent or mixture, test amount 0.1 g, Snyder polarity index 4.1, read-out: Solubility in Chloroform)?
A: > 100 mg/mL

Q: What about the solubility ([7]; ethyl acetate, organic solvent or mixture, test amount 0.1 g, Snyder polarity index 4.3, read-out: Solubility in Ethyl acetate) of the same compound?
A: > 100 mg/mL

Q: And the solubility ([7]; isopropanol, organic solvent or mixture, test amount 0.1 g, read-out: Solubility in Isopropanol)?
A: > 100 mg/mL

Q: And the solubility ([7]; methanol, organic solvent or mixture, test amount 0.1 g, Snyder polarity index 6.6, read-out: Solubility in Methanol)?
A: > 100 mg/mL

Q: And the solubility ([7]; n-hexane, organic solvent or mixture, test amount 0.1 g, Snyder polarity index 0.0, read-out: Solubility in n-Hexane)?
A: > 100 mg/mL

Q: And the solubility ([7]; toluene, organic solvent or mixture, test amount 0.1 g, Snyder polarity index 2.3, read-out: Solubility in Toluene)?
A: > 100 mg/mL

Q: What about the solubility ([7]; various polar solvents, organic solvent or mixture, read-out: solubility in various polar solvents) of the same compound?
A: 100 mg/mL (≈ 343 mM)

Q: What about the solubility ([7]; water, test amount 0.1 g, Snyder polarity index 9.0, read-out: Solubility in Water) of the same compound?
A: < 33.3 mg/mL

Q: What about the EC50 ([8]; Rhizoctonia solani) of the same compound?
A: 1.73 µg/mL and 5.94 µM

Q: And the inhibition at 50 µg/mL ([8]; Rhizoctonia solani, 50 mg/L, read-out: Inhibition Rate at 50 mg/L (%) R. s)?
A: 84.21 ± 0.53%

Q: What about the inhibition at 50 µg/mL ([9]; Pythium aphanidermatum, 50 mg/L, read-out: Inhibition Rate at 50 mg/L (%) P. a) of the same compound?
A: 68.2 ± 1.87%

Q: What about the solubility at 15 min ([10]; water, thermodynamic from solid, read-out: water solubility) of the same compound?
A: 5.22 µM (≈ 1.52 µg/mL)

Q: And the inhibition at 50 µg/mL ([11]; Diaporthe capsici, 50 mg/L, read-out: Inhibition Rate at 50 mg/L (%) P. c)?
A: 48.75 ± 0.45%

Q: What about the “surface tension of the saturated aqueous solution” value [12] of the same compound?
A: 59.92 mN·m^−1
